Blank lines part the entries; values can stand above or below the compound they belong to. Calls of active or inactive are those of the source. The calls are words filed in the database; no cut-off is given here.
Key:
A549 = test: Antiproliferative activity against human A549 cells after 72 hrs by sulforhodamine B assay; assay type: functional, cell-based; conditions: A549, 72 h
MDA-MB-231 [1] = test: Antiproliferative activity against human MDA-MB-231 cells after 72 hrs by sulforhodamine B assay; assay type: functional, cell-based; conditions: MDA-MB-231, 72 h
MCF7 = test: Antiproliferative activity against human MCF7 cells after 72 hrs by sulforhodamine B assay; assay type: functional, cell-based; conditions: MCF7, 72 h
KB = test: Antiproliferative activity against human KB cells after 72 hrs by sulforhodamine B assay; assay type: functional, cell-based
[2] = Antiproliferative activity against human KB-VIN cells after 72 hrs by sulforhodamine B assay; assay type: functional, cell-based; conditions: KBVIN
MDA-MB-231 [3] = test: Induction of autophagy in human MDA-MB-231 cells transfected with mRFP-eGFP-LC3 assessed as accumulation of autolysosome by measuring increase in red fluorescence at 1.8 uM measured after 24 hrs by confocal laser scanning microscopy; assay type: functional, cell-based
MDA-MB-231 [4] = test: Antitumor activity against human MDA-MB-231 cells xenografted in BALB/c nude mouse assessed as reduction in tumor weight at 10 mg/kg, ip measured at 2 days interval for 21 days relative to control; assay type: functional; set-up: scale not given: the % may be the effect or the level left; conditions: time 2 day
MDA-MB-231 [5] = test: Down regulation of TrxR1 expression in human MDA-MB-231 cells at 1.8 uM measured after 72 hrs by Western blot analysis; assay type: functional, cell-based
MDA-MB-231 [6] = test: Induction of autophagy in human MDA-MB-231 cells transfected with mRFP-eGFP-LC3 assessed as accumulation of autophagosomes by measuring increase in […] fluorescence at 1.8 uM measured after 24 hrs by confocal laser scanning microscopy; assay type: functional, cell-based
[7] = Inhibition of TrxR in human MDA-MB-231 cells measured after 72 hrs by colorimetric method; assay type: cell-based
Rattus norvegicus = organism: Rattus norvegicus; test: Inhibition of purified rat liver TrxR measured after 75 mins in presence of NADPH by DTNB based assay
MDA-MB-231 [8] = test: Induction of apoptosis in human MDA-MB-231 cells at 1.8 uM measured after 72 hrs by APC-Annexin V/7-AAD staining based flow cytometry relative to control; assay type: functional
MDA-MB-231 [9] = test: Induction of apoptosis in human MDA-MB-231 cells assessed as activation of caspase-3 cleavage at 1.8 uM measured after 72 hrs by Western blot analysis; assay type: functional, cell-based
MDA-MB-231 [10] = test: Induction of reactive oxygen species generation in human MDA-MB-231 cells measured after 24 hrs by DCFH-DA probe based flow cytometry; assay type: functional, cell-based
MDA-MB-231 [11] = test: Induction of autophagy in human MDA-MB-231 cells transfected with mRFP-eGFP-LC3 assessed as increase in LC3-II expression at 1.8 uM measured after 72 hrs by Western blot analysis; assay type: functional, cell-based
[12] = Selectivity ratio of IC50 for human A549 cells to IC50 for human MDA-MB-231 cells; assay type: functional
[13] = Acute toxicity in ICR mouse assessed as abnormality in drinking at 200 mg/kg, ip administered as single dose measured for 14 days; assay type: organism-based; conditions: in vivo, 336 h, time 14 day
[14] = Acute toxicity in ICR mouse assessed as change in body weight at 200 mg/kg, ip administered as single dose measured for 14 days; assay type: organism-based; conditions: in vivo, 336 h, time 14 day
[15] = Acute toxicity in ICR mouse assessed as survival at 250 mg/kg, ip administered as single dose measured for 14 days; assay type: organism-based; conditions: in vivo, time 14 day, read-out: Activity
[16] = Acute toxicity in ICR mouse assessed as survival at 200 mg/kg, ip administered as single dose measured for 14 days; assay type: organism-based; conditions: in vivo, time 14 day, read-out: Activity
[17] = Acute toxicity in ICR mouse assessed as death at 200 mg/kg, ip administered as single dose measured for 14 days; assay type: organism-based; conditions: in vivo, 336 h, time 14 day
MDA-MB-231 [18] = test: Induction of autophagy in human MDA-MB-231 cells transfected with mRFP-eGFP-LC3 assessed as decrease in LC3-I expression at 0.2 to 1.8 uM measured after 72 hrs by Western blot analysis; assay type: functional, cell-based; conditions: dose 0.2-1.8 µM
[19] = Acute toxicity in ICR mouse assessed as survival at 488.3 mg/kg, ip administered as single dose measured for 14 days; assay type: organism-based; conditions: in vivo, time 14 day, read-out: Activity
MDA-MB-231 [20] = test: Induction of autophagy in human MDA-MB-231 cells transfected with mRFP-eGFP-LC3 assessed as accumulation of autophagosomes by measuring increase in […] fluorescence measured after 24 hrs by confocal laser scanning microscopy; assay type: functional, cell-based
MDA-MB-231 [21] = test: Induction of apoptosis in human MDA-MB-231 cells at 0.2 uM measured after 72 hrs by APC-Annexin V/7-AAD staining based flow cytometry relative to control; assay type: functional
MDA-MB-231 [22] = test: Antitumor activity against human MDA-MB-231 cells xenografted in BALB/c nude mouse assessed as reduction in tumor volume at 10 to 25 mg/kg, ip measured at 2 days interval for 21 days; assay type: functional, organism-based; conditions: dose 10-25 mg/kg, time 2.0 day
[23] = Acute toxicity in ip dosed ICR mouse administered as single dose measured for 14 days; assay type: organism-based; conditions: in vivo, time 14 day
[24] = Acute toxicity in ICR mouse assessed as abnormality in eating at 200 mg/kg, ip administered as single dose measured for 14 days; assay type: organism-based; conditions: in vivo, 336 h, time 14 day
MDA-MB-231 [25] = test: Induction of apoptosis in human MDA-MB-231 cells assessed as activation of caspase-3 cleavage at 0.2 to 1.8 uM measured after 72 hrs by Western blot analysis; assay type: functional, cell-based; conditions: dose 0.2-1.8 µM
MDA-MB-231 [26] = test: Down regulation of TrxR1 expression in human MDA-MB-231 cells measured after 72 hrs by Western blot analysis; assay type: functional, cell-based
MDA-MB-231 [27] = test: Induction of apoptosis in human MDA-MB-231 cells assessed as reduction in Bcl-XL expression measured after 72 hrs by Western blot analysis; assay type: functional, cell-based
MDA-MB-231 [28] = test: Induction of autophagy in human MDA-MB-231 cells transfected with mRFP-eGFP-LC3 assessed as increase in LC3-II expression at 0.2 to 1.8 uM measured after 72 hrs by Western blot analysis; assay type: functional, cell-based; conditions: dose 0.2-1.8 µM
MDA-MB-231 [29] = test: Antitumor activity against human MDA-MB-231 cells xenografted in BALB/c nude mouse assessed as reduction in tumor weight at 25 mg/kg, ip measured at 2 days interval for 21 days relative to control; assay type: functional; set-up: scale not given: the % may be the effect or the level left; conditions: time 2 day
MDA-MB-231 [30] = test: Induction of apoptosis in human MDA-MB-231 cells assessed as reduction in Bcl-2 expression measured after 72 hrs by Western blot analysis; assay type: functional, cell-based
MDA-MB-231 [31] = test: Induction of autophagy in human MDA-MB-231 cells transfected with mRFP-eGFP-LC3 assessed as decrease in p62 expression at 0.2 to 1.8 uM measured after 72 hrs by Western blot analysis; assay type: functional, cell-based; conditions: dose 0.2-1.8 µM
MDA-MB-231 [32] = test: Induction of apoptosis in human MDA-MB-231 cells at 0.6 uM measured after 72 hrs by APC-Annexin V/7-AAD staining based flow cytometry relative to control; assay type: functional
[33] = Acute toxicity in ICR mouse assessed as survival at 390.6 mg/kg, ip administered as single dose measured for 14 days; assay type: organism-based; conditions: in vivo, time 14 day, read-out: Activity
[34] = Acute toxicity in ICR mouse assessed as survival at 312.5 mg/kg, ip administered as single dose measured for 14 days; assay type: organism-based; conditions: in vivo, time 14 day, read-out: Activity
MDA-MB-231 [35] = test: Induction of autophagy in human MDA-MB-231 cells transfected with mRFP-eGFP-LC3 assessed as accumulation of autolysosome by measuring increase in red fluorescence measured after 24 hrs by confocal laser scanning microscopy; assay type: functional, cell-based

Structure (SMILES): COc1cccc(/C=C2\CCC=CC2=O)c1
IC50 (A549): 1480 nM
IC50 (MDA-MB-231 [1]): 1060 nM
IC50 (MCF7): 2030 nM
IC50 (KB): 1550 nM
IC50 [2]: 2570 nM

Structure (SMILES): O=C1C=CCC/C1=C\c1ccc2c(c1)OCO2
IC50 (A549): 1520 nM
IC50 (MDA-MB-231 [1]): 1650 nM
IC50 (MCF7): 2280 nM
IC50 (KB): 1660 nM
IC50 [2]: 2200 nM

Structure (SMILES): Cn1cc(/C=C2\CCC=CC2=O)c2ccccc21
IC50 (A549): 4920 nM
IC50 (MDA-MB-231 [1]): 3370 nM
IC50 (MCF7): 6040 nM
IC50 (KB): 4420 nM
IC50 [2]: 4960 nM

Structure (SMILES): COc1ccc(/C=C2\CCC=CC2=O)cc1
IC50 (A549): 1460 nM
IC50 (MDA-MB-231 [1]): 1620 nM
IC50 (MCF7): 2570 nM
IC50 (KB): 1560 nM
IC50 [2]: 2930 nM

Structure (SMILES): COc1ccc(/C=C2\CCC=CC2=O)c(C)c1
IC50 (A549): 1550 nM
IC50 (MDA-MB-231 [1]): 1070 nM
IC50 [7]: 460 nM
IC50 (MCF7): 1840 nM
IC50 (KB): 1310 nM
Activity (MDA-MB-231 [10]): Active
IC50 [2]: 1590 nM

Structure (SMILES): O=C1C=CCC/C1=C\c1ccc(OC(F)(F)F)cc1
Activity [13]: Non-Toxic
Activity [14]: Non-Toxic
IC50 (A549): 440 nM
survival at 336 h [15]: 90%
survival at 336 h [16]: 100%
Activity [17]: Non-Toxic
IC50 (MDA-MB-231 [1]): 590 nM
Activity (MDA-MB-231 [18]): Active
survival at 336 h [19]: 10%
Activity (MDA-MB-231 [20]): Dose-dependent effect
Activity (MDA-MB-231 [21]): 20.7%
IC50 [7]: 120 nM
Activity (MDA-MB-231 [22]): Active
IC50 (MCF7): 1040 nM
LD50 at 336 h [23]: 366 mg/kg
Activity [24]: Non-Toxic
inhibition (Rattus norvegicus): Active
IC50 (KB): 530 nM
Activity (MDA-MB-231 [25]): Active
Activity (MDA-MB-231 [8]): 56.8%
Activity (MDA-MB-231 [10]): Active
Activity (MDA-MB-231 [26]): Dose-dependent effect
Activity (MDA-MB-231 [27]): Dose-dependent effect
Activity (MDA-MB-231 [28]): Active
Activity (MDA-MB-231 [29]): 63.3%
Activity (MDA-MB-231 [30]): Dose-dependent effect
Activity (MDA-MB-231 [31]): Active
Activity (MDA-MB-231 [32]): 45.6%
survival at 336 h [33]: 30%
survival at 336 h [34]: 70%
IC50 [2]: 840 nM
Activity (MDA-MB-231 [35]): Dose-dependent effect

More lines, main results first:

IC50 (A549): 3200 nM
IC50 (MDA-MB-231 [1]): 3720 nM
IC50 [7]: 1520 nM
IC50 (MCF7): 4400 nM
inhibition (Rattus norvegicus): Active
IC50 (KB): 1670 nM
Structure (SMILES): COc1cc(/C=C/C(=O)N2CCC=CC2=O)cc(OC)c1OC [PIPLARTINE]
Activity (MDA-MB-231 [3]): Active
Activity (MDA-MB-231 [4]): 44.9%
Activity (MDA-MB-231 [5]): Active
Activity (MDA-MB-231 [6]): Active
Activity (MDA-MB-231 [8]): Active
Activity (MDA-MB-231 [9]): Active
Activity (MDA-MB-231 [10]): Active
Activity (MDA-MB-231 [11]): Active
IC50 [2]: 7850 nM

IC50 (A549): 4450 nM
IC50 (MDA-MB-231 [1]): 640 nM
IC50 (MCF7): 5250 nM
IC50 (KB): 920 nM
Structure (SMILES): O=C1C=CCC/C1=C\c1cnc2ccccc2c1
IC50 [2]: 5380 nM

IC50 (A549): 18700 nM
IC50 (MDA-MB-231 [1]): 15900 nM
IC50 (MCF7): 17600 nM
Structure (SMILES): COc1cc(/C=C2\CN(S(C)(=O)=O)C=CC2=O)cc(OC)c1OC

IC50 (A549): 4830 nM
IC50 (MDA-MB-231 [1]): 930 nM
IC50 (MCF7): 5440 nM
IC50 (KB): 4460 nM
Structure (SMILES): CC(=O)n1cc(/C=C2\CCC=CC2=O)c2ccccc21
IC50 [2]: 5050 nM

IC50 (A549): 21300 nM
IC50 (MDA-MB-231 [1]): 24200 nM
IC50 (MCF7): > 25000 nM
Structure (SMILES): COc1cc(/C=C2\CN(C(=O)OCc3ccccc3)C=CC2=O)cc(OC)c1OC

IC50 (A549): 5090 nM
IC50 (MDA-MB-231 [1]): 610 nM
IC50 (MCF7): 4710 nM
IC50 (KB): 3850 nM
Structure (SMILES): COc1cccc(/C=C2\CCC=CC2=O)c1OC
Ratio IC50 [12]: 8
IC50 [2]: 5220 nM

IC50 (A549): 1630 nM
IC50 (MDA-MB-231 [1]): 1630 nM
IC50 (MCF7): 3600 nM
IC50 (KB): 1500 nM
Structure (SMILES): COc1cc(/C=C2\CCC=CC2=O)cc2ccccc12
IC50 [2]: 2620 nM

IC50 (A549): 4860 nM
IC50 (MDA-MB-231 [1]): 670 nM
IC50 (MCF7): 5330 nM
IC50 (KB): 3670 nM
Structure (SMILES): COc1cc(/C=C2\CCC=C(I)C2=O)cc(OC)c1OC
IC50 [2]: 5310 nM

Reference: ChEMBL document CHEMBL4765408, “Design and synthesis of benzylidenecyclohexenones as TrxR inhibitors displaying high anticancer activity and inducing ROS, apoptosis, and autophagy” (Eur J Med Chem, 2020)
